The source made the active and inactive calls. No cut-off for these calls is given here.
Columns and labels:
HL-60 = experiment: cells; conditions: Homo sapiens
Description: Cytotoxicity against human HL60 cells after 48 to 72 hrs by Alamar blue assay

[1] = Inhibition of Cryptosporidium parvum CDPK1
[2] = target: T1, Calmodulin-domain protein kinase 1 (Toxoplasma gondii, UniProt Q9BJF5); experiment: Inhibition of Toxoplasma gondii CDPK1
T1 sequence (Q9BJF5 whole entry): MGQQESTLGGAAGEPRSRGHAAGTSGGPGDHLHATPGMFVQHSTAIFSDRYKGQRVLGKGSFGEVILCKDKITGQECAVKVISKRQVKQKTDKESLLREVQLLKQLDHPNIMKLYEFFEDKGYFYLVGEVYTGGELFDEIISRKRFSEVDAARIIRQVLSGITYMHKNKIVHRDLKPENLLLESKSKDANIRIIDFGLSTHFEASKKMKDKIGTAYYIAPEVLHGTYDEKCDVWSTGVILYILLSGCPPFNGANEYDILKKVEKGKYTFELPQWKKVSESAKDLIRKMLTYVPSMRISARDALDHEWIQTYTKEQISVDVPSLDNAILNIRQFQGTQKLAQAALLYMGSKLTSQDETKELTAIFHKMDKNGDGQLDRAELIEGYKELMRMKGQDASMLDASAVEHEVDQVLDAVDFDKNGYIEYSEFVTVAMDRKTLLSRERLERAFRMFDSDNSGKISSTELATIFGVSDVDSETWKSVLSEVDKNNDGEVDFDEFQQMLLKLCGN

[3] = target: Proto-oncogene tyrosine-protein kinase Src (Homo sapiens, UniProt P12931); experiment: Inhibition of human SRC
Proto-oncogene tyrosine-protein kinase Src, sequence (P12931 2-536 limits assumed): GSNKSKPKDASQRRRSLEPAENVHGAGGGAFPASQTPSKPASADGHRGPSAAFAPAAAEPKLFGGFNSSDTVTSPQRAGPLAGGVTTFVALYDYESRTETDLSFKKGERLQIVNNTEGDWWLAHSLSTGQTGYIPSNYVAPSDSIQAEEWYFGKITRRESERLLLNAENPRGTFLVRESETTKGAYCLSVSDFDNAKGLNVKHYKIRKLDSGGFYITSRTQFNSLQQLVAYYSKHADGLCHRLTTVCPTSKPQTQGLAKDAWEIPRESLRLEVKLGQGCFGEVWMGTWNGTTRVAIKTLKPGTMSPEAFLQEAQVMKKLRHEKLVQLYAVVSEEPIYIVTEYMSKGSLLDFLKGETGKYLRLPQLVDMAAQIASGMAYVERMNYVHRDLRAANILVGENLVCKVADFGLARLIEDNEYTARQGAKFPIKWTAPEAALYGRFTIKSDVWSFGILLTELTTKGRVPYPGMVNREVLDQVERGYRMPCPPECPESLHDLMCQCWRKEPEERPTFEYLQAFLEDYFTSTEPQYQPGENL

Toxoplasma gondii = experiment: Antiparasitic activity against Toxoplasma gondii up to 1 uM; format: functional, organism-based
Cryptosporidium parvum = experiment: Antiparasitic activity against Cryptosporidium parvum up to 1 uM; format: functional, organism-based
cells = conditions: Homo sapiens, CRL8155
Description: Cytotoxicity against human CRL8155 cells after 48 to 72 hrs by Alamar blue assay

[4] = target: Tyrosine-protein kinase ABL1 (Homo sapiens, UniProt P00519); experiment: Inhibition of human ABL
Tyrosine-protein kinase ABL1, sequence (P00519 whole entry): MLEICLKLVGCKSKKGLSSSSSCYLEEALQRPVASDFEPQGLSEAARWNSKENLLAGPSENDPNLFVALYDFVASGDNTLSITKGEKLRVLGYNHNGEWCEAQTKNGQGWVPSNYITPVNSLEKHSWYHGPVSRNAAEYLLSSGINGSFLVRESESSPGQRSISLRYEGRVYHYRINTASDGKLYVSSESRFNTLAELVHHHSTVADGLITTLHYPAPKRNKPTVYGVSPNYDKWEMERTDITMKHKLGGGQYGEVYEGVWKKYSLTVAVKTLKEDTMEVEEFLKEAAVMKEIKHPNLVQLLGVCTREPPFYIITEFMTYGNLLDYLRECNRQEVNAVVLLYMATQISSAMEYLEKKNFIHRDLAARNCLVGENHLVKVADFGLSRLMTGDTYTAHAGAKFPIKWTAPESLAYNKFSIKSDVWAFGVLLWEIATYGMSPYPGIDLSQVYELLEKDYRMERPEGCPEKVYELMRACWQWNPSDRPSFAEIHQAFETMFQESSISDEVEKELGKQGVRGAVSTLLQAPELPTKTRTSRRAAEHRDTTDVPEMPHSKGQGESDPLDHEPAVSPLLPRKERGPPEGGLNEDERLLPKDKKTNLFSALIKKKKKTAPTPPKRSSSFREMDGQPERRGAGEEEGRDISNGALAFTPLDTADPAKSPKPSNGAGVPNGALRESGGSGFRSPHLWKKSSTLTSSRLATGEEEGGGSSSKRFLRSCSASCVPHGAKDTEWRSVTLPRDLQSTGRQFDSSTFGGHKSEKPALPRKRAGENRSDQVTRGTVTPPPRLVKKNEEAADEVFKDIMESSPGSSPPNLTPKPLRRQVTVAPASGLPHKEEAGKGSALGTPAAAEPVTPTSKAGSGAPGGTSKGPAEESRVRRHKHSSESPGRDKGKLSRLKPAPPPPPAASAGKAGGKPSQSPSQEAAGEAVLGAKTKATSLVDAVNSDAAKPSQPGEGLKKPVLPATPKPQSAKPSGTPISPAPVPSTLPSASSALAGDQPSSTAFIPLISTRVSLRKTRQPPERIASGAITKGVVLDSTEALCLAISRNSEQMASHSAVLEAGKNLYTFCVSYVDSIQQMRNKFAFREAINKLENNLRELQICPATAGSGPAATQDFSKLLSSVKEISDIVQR

SMILES: Nc1nc2ccc(C(=O)c3ccccc3)cc2n1CCC1CCNCC1
- EC50 (HL-60): > 30 µM
- IC50 [1]: 0.017 µM
- IC50 [2]: 0.02 µM
- IC50 [3]: > 10 µM
- Activity (Toxoplasma gondii): inactive
- Activity (Cryptosporidium parvum): inactive
- EC50 (cells): > 30 µM
- IC50 [4]: > 10 µM

From ChEMBL document CHEMBL2057208, “Benzoylbenzimidazole-based selective inhibitors targeting Cryptosporidium parvum and Toxoplasma gondii calcium-dependent protein kinase-1” (Bioorg Med Chem Lett, 2012)
